From US20250326715A1, “NOVEL MAIN PROTEASE INHIBITORS, AND COMPOSITIONS AND METHODS THEREOF” (University of Massachusetts, priority 2023, published 2025)
Like-named read-outs stand apart in the source and are kept apart here. Where a SMILES comes first, the peptide text is derived from it.

Columns and labels:
A549-hACE2 cells = conditions: Table 2; data from medRxiv preprint; cited from earlier work
[1] = data from medRxiv preprint; cited from earlier work
CYP3A4/5 = conditions: data from medRxiv preprint; cited from earlier work
SARS-CoV-2 M^Pro [2] = molecular target: T1, SARS-CoV-2 M^Pro (Severe acute respiratory syndrome coronavirus 2, UniProt P0DTD1); assay: Determination of IC50 values for SARS-CoV-2 M^Pro (fluorogenic peptide substrate, end-point); type: biochemical; conditions: 12.5 nM M^Pro, 20 min preincubation, 30 μM substrate; read-out: M^Pro IC50
SARS-CoV-2 M^Pro [3] = molecular target: T1, SARS-CoV-2 M^Pro; assay: Determination of KI values for SARS-CoV-2 M^Pro (initial velocity, competitive inhibition); type: biochemical; conditions: competitive inhibition, initial velocity; read-out: M^Pro Ki
SARS-CoV-2 M^Pro [4] = molecular target: T1, SARS-CoV-2 M^Pro; assay: Determination of kinact/KI values for SARS-CoV-2 M^Pro (time- and concentration-dependent inactivation); type: biochemical
Method: where νo is the initial velocity of uninhibited reaction and νi is the initial velocity in the presence of inhibitor. All measurements were done in triplicate. Determination of kinact/KI values for SARS-CoV-2 M^Pro
Time- and concentration-dependent inactivation assays were done by following a similar protocol as described for Ki determination. M^Pro (12.5 nM final) was treated with the peptide-substrate (30 μM final) and test inhibitor (0-80 μM for D-FF(R/Cit)-(CMK/CMKyne); 0-1.25 mM for SM136-145) at time=0 to initiate inactivation process. The total volume of the assay mixture was 50 μL. Time-dependent increase in fluorescence was monitored at 485 nm with excitation at 340 nm for a period of 20-25 min. The observed rates (kobs) for the peptide cleavage in both the presence and absence of inhibitor were determined by fitting to a single-phase association equation. The resulting kobs values were plotted against the concentrations of inhibitor and linear fits were used to derive the slope that afforded the kinact/KI values. All measurements were done in triplicate.

SARS-CoV-2 PL^Pro = SARS-CoV-2 PL^Pro (Severe acute respiratory syndrome coronavirus 2, UniProt P0DTD1); assay: Determination of IC50 values for SARS-CoV-2 PL^Pro (Z-RLRGG-AMC substrate); type: biochemical; conditions: 30 nM PL^Pro, 20 min preincubation; read-out: PL^Pro IC50
Cathepsin L = molecular target: T2, Cathepsin L (Homo sapiens, UniProt P07711); assay: Cathepsin L inhibition assay kit (Abcam), IC50 and kinact/KI; type: biochemical; conditions: for IC50: 20 min pretreatment; for kinact/KI: read-out: Cathepsin L kinact/KI
T2 construct: purchased Abcam ab197012
T2 sequence (P07711 114-333): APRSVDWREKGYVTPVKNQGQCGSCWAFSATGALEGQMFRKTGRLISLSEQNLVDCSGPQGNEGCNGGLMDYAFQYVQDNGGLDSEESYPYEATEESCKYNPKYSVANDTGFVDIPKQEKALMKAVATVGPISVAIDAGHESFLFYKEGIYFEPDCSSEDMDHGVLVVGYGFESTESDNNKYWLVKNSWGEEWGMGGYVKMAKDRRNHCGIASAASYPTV
Method: (§1) Determination of IC50 and kinact/KI values for Cathepsins L and B
IC50 and kinact/KI values of the inhibitors were determined using commercially available inhibition assay kits (Abcam) by following the manufacturer's protocol. […] The observed rates (kobs) were determined by fitting to a single-phase association equation. The resulting kobs values were plotted against the concentrations of inhibitor and the data were fit to equation 2 to derive the kinact/KI values,
using GraphPad Prism, where kinact is the maximal rate of inactivation, KI is the concentration of inhibitor that affords half-maximal inactivation, and [I] is the concentration of inhibitor. When kobs with [I] varied linearly, kinact/KI was determined from the slope of the line. All the experiments were performed in triplicate. […] Crystallization of M^Pro in Complex with Inhibitors

Cathepsin B = molecular target: T3, Cathepsin B (Homo sapiens, UniProt P07858); assay: Cathepsin B inhibition assay kit (Abcam), IC50; type: biochemical; conditions: 20 min pretreatment
T3 construct: purchased Abcam ab185438
Method: as §1
IC50 and kinact/KI values of the inhibitors were determined using commercially available inhibition assay kits (Abcam) by following the manufacturer's protocol. For IC50 values, enzymes were pretreated with test inhibitor (0-50 μM) for 20 min prior to adding the fluorogenic substrate, and end-point fluorescence was recorded after 30 min. For the kinact/KI values, enzymes were treated with inhibitor and substrate simultaneously and increase in fluorescence was monitored over 60 min. The observed rates (kobs) were determined by fitting to a single-phase association equation. The resulting kobs values were plotted against the concentrations of inhibitor and the data were fit to equation 2 to derive the kinact/KI values,
using GraphPad Prism, where kinact is the maximal rate of inactivation, KI is the concentration of inhibitor that affords half-maximal inactivation, and [I] is the concentration of inhibitor. When kobs with [I] varied linearly, kinact/KI was determined from the slope of the line. All the experiments were performed in triplicate. All fluorescence measurements were taken at absorption/emission wavelength of 400/505 nm using an EnVision 2105 plate reader. Crystallization of M^Pro in Complex with Inhibitors

SARS-CoV-2 = assay: microbe, parasite or virus in culture; type: cell-based; conditions: A549-hACE2 cells

Structure (SMILES): CC(C)(C)[C@H](NC(=O)C(F)(F)F)C(=O)N1C[C@H]2[C@@H]([C@H]1C(=O)N[C@H](C#N)C[C@@H]1CCNC1=O)C2(C)C [nirmatrelvir]
- cytoxcity (A549-hACE2 cells): >3 µM
- Fa × Fg [1]: 95%
- CYP3A4/5 metabolism (CYP3A4/5): HIGH

Structure (SMILES): CCOC(=O)C=CC(CC1CCNC1=O)NC(=O)C(Cc1ccc(F)cc1)NC(=O)C(N)Cc1ccccc1 (centres unmarked) [SM137]
- IC50 (SARS-CoV-2 M^Pro [2]): 10 µM
- Ki (SARS-CoV-2 M^Pro [3]): 50 µM
- kinact/KI (SARS-CoV-2 M^Pro [4]; read-out: M^Pro kinact/KI): 30 M⁻¹ s⁻¹

Structure (SMILES): CCOC(=O)C=CC(CC1CCNC1=O)NC(=O)C(Cc1ccc(F)cc1)NC(=O)C(N)Cc1ccc(F)cc1 (centres unmarked) [SM139]
- IC50 (SARS-CoV-2 M^Pro [2]): 10 µM
- Ki (SARS-CoV-2 M^Pro [3]): 65 µM
- kinact/KI (SARS-CoV-2 M^Pro [4]; read-out: M^Pro kinact/KI): 25 M⁻¹ s⁻¹

Structure (SMILES): N=C(N)NCCC[C@H](NC(=O)[C@H](Cc1ccccc1)NC(=O)[C@H](N)Cc1ccccc1)C(=O)CCl [D-FFR-CMK] (HELM PEPTIDE1{[dF].F.R.[ClC[*:1]]}$$$$V2.0)
- IC50 (SARS-CoV-2 M^Pro [2]): 0.1 µM
- IC50 (SARS-CoV-2 PL^Pro): 5 µM

Structure (SMILES): NC(=O)NCCC[C@H](NC(=O)[C@H](Cc1ccccc1)NC(=O)[C@H](N)Cc1ccccc1)C(=O)CCl [D-FFCit-CMK] (HELM PEPTIDE1{[dF].F.[Cit].[ClC[*:1]]}$$$$V2.0)
- IC50 (SARS-CoV-2 M^Pro [2]): 0.13 µM
- IC50 (SARS-CoV-2 PL^Pro): > 50 µM

Structure (SMILES): CCOC(=O)C=CC(CC1CCNC1=O)NC(=O)C(Cc1ccc(F)cc1)NC(=O)C(Cc1ccc(F)cc1)NC(=O)OC(C)(C)C (centres unmarked) [SM138]
- kinact/KI (SARS-CoV-2 M^Pro [4]; read-out: M^Pro kinact/KI): 10.8 M⁻¹ s⁻¹

Structure (SMILES): CCOC(=O)C=CC(CC1CCNC1=O)NC(=O)C(Cc1ccc(F)cc1)NC(=O)C(Cc1ccccc1)NC(=O)OC(C)(C)C (centres unmarked) [SM136]
- IC50 (SARS-CoV-2 M^Pro [2]): 20 µM
- Ki (SARS-CoV-2 M^Pro [3]): 73 µM
- kinact/KI (SARS-CoV-2 M^Pro [4]; read-out: M^Pro kinact/KI): 12.8 M⁻¹ s⁻¹

Structure (SMILES): C#CCOCCC(=O)NC(Cc1ccccc1)C(=O)NC(Cc1ccccc1)C(=O)NC(C=CC(=O)OCC)CC1CCNC1=O (centres unmarked) [SM145]
- IC50 (SARS-CoV-2 M^Pro [2]): 0.8 µM
- Ki (SARS-CoV-2 M^Pro [3]): 5.3 µM
- kinact/KI (SARS-CoV-2 M^Pro [4]; read-out: M^Pro kinact/KI): 400 M⁻¹ s⁻¹
- kinact/KI (SARS-CoV-2 M^Pro [4]; read-out: second-order rate constant for enzyme inactivation (kinact/KI), M^Pro): 400 M⁻¹ s⁻¹
- IC50 (SARS-CoV-2 PL^Pro): > 50 µM
- IC50 (Cathepsin L): 0.2 µM
- kinact/KI (Cathepsin L): 417 M⁻¹ s⁻¹
- IC50 (Cathepsin B): > 50 µM
- antiviral activity compared with SM141 and SM142 (SARS-CoV-2): significantly lower antiviral activity than SM141 and SM142

Structure (SMILES): CCOC(=O)C=CC(CC1CCNC1=O)NC(=O)C(Cc1ccccc1)NC(=O)C(Cc1ccccc1)NC(=O)OC(C)(C)C (centres unmarked) [SM140]
- IC50 (SARS-CoV-2 M^Pro [2]): 2.2 µM
- Ki (SARS-CoV-2 M^Pro [3]): 16 µM
- kinact/KI (SARS-CoV-2 M^Pro [4]; read-out: M^Pro kinact/KI): 150 M⁻¹ s⁻¹
- IC50 (SARS-CoV-2 PL^Pro): > 50 µM
- IC50 (Cathepsin B): > 50 µM

Structure (SMILES): CCOC(=O)C=CC(CC1CCNC1=O)NC(=O)C(Cc1ccccc1)NC(=O)C(N)Cc1ccc(F)cc1 (centres unmarked) [SM143]
- IC50 (SARS-CoV-2 M^Pro [2]): 0.9 µM
- Ki (SARS-CoV-2 M^Pro [3]): 7 µM
- kinact/KI (SARS-CoV-2 M^Pro [4]; read-out: M^Pro kinact/KI): 350 M⁻¹ s⁻¹
- IC50 (SARS-CoV-2 PL^Pro): > 50 µM
- IC50 (Cathepsin L): 0.073 µM
- kinact/KI (Cathepsin L): 2330 M⁻¹ s⁻¹
- IC50 (Cathepsin B): > 50 µM
